pEC50, pIC50: −log10 of the molar value.
Legend:
in vitro [1] = settings: human, MT4 cells; MT4 cells infected with HIV1 3B
Description: Selectivity index, ratio of CC50 for cytotoxicity against human MT4 cells to EC50 for antiviral activity against HIV1 3B infected in human MT4 cells

[2] = test system: Human immunodeficiency virus 1; experiment: Antiviral activity against HIV1 3B infected in human MT4 cells assessed as virus-induced cytopathic effect incubated for 5 days by MTT assay; type: functional, organism-based; settings: Human immunodeficiency virus 1, 3B, MT4, 120 h
[3] = Cytotoxicity against human MT4 cells assessed as reduction in cell viability incubated for 5 days by MTT assay; type: cell-based
[4] = test system: Human immunodeficiency virus 1; experiment: Antiviral activity against HIV1 3B harbouring NNRTI K103N mutant infected in human MT4 cells assessed as virus-induced cytopathic effect incubated for 5 days by MTT assay; type: functional, organism-based; settings: Human immunodeficiency virus 1, 3B, MT4, 120 h
in vitro [5] = settings: human, MT4 cells; MT4 cells infected with HIV1 3B K103N mutant
Description: Selectivity index, ratio of CC50 for cytotoxicity against human MT4 cells to EC50 for antiviral activity against HIV1 3B harbouring NNRTI K103N mutant infected in human MT4 cells

[6] = molecular target: Human immunodeficiency virus type 1 reverse transcriptase (Human immunodeficiency virus 1, UniProt Q72547)
Description: Inhibition of recombinant wild type HIV-1 His-tagged reverse transcriptase p66/p51 expressed in Escherichia coli JM109 using poly(rA)/oligo(dT)16 as template/primer incubated for 40 mins by pico-green based spectrofluorometric analysis

| SMILES | selectivity ratio (in vitro [1]) | pEC50 [2] | CC50 at 120 h [3] [nM] | pEC50 [4] | selectivity ratio (in vitro [5]) | pIC50 [6] |
| --- | --- | --- | --- | --- | --- | --- |
| COc1cc2nc(SCC(=O)Nc3ccc(C)cc3)nc(Nc3c(Cl)cc(/C=C/C#N)cc3Cl)c2cc1OC | < 1 | < 5.60 | 2540 | – | – | – |
| COc1cc2nc(Nc3ccc(C#N)cc3)nc(Nc3c(C)cc(/C=C/C#N)cc3F)c2cc1OC | > 4250 | 7.91 | > 52000 | 7.96 | > 4720 | – |
| COc1cc2nc([S+]([O-])CC(=O)Nc3ccc([N+](=O)[O-])cc3)nc(Nc3c(Cl)cc(/C=C/C#N)cc3Cl)c2cc1OC (stereo not given) | 2410 | 7.41 | 92800 | 7.51 | 2990 | – |
| COc1cc2nc([S+]([O-])CC(=O)Nc3ccc(S(N)(=O)=O)cc3)nc(Nc3c(Cl)cc(/C=C/C#N)cc3Cl)c2cc1OC (stereo not given) | > 10 | 4.71 | > 189000 | 5.04 | > 21 | – |
| COc1cc2nc([S+]([O-])CC(=O)Nc3ccc(C#N)cc3)nc(Nc3c(Cl)cc(/C=C/C#N)cc3Cl)c2cc1OC (stereo not given) | ≥ 3240 | 7.24 | ≥ 188000 | 7.37 | ≥ 4420 | – |
| COc1cc2nc([S+]([O-])CC(=O)Nc3ccccc3[N+](=O)[O-])nc(Nc3c(Cl)cc(/C=C/C#N)cc3Cl)c2cc1OC (stereo not given) | – | < 3.70 | > 199000 | – | – | – |
| COc1cc2nc(SCC(=O)Nc3ccc(Cl)cc3)nc(Nc3c(Cl)cc(/C=C/C#N)cc3Cl)c2cc1OC | 24 | 5.90 | 29500 | 6.17 | 44 | – |
| COc1cccc(NC(=O)C[S+]([O-])c2nc(Nc3c(Cl)cc(/C=C/C#N)cc3Cl)c3cc(OC)c(OC)cc3n2)c1 (stereo not given) | ≥ 70 | 5.63 | ≥ 167000 | 6.33 | ≥ 439 | – |
| COc1cc2nc(Nc3ccc(C#N)cc3)nc(Nc3c(C)cc(/C=C/C#N)cc3C)c2cc1OC | 806 | 7.90 | 10200 | 7.98 | 986 | 6.26 |
| COc1ccc(NC(=O)CSc2nc(Nc3c(C)cc(/C=C/C#N)cc3C)c3cc(OC)c(OC)cc3n2)cc1 | > 82 | 5.56 | > 225000 | 6.13 | > 302 | – |
| COc1cc2nc([S+]([O-])CC(=O)Nc3ccccc3C#N)nc(Nc3c(Cl)cc(/C=C/C#N)cc3Cl)c2cc1OC (stereo not given) | > 7 | 4.51 | > 206000 | 4.93 | > 18 | – |
| COc1ccccc1NC(=O)C[S+]([O-])c1nc(Nc2c(Cl)cc(/C=C/C#N)cc2Cl)c2cc(OC)c(OC)cc2n1 (stereo not given) | > 63 | 5.49 | > 204000 | 5.81 | > 132 | – |
| COc1cc2nc([S+]([O-])CC(=O)Nc3ccccc3C(F)(F)F)nc(Nc3c(Cl)cc(/C=C/C#N)cc3Cl)c2cc1OC (stereo not given) | > 3 | 4.17 | > 192000 | < 3.72 | – | – |
| COc1cc2nc(Nc3ccc(C#N)cc3)nc(Nc3c(F)cc(/C=C/C#N)cc3F)c2cc1OC | 156 | 7.39 | 6400 | 7.74 | 355 | – |
| COc1cc2nc([S+]([O-])CC(=O)Nc3c(C)cc(C)cc3C)nc(Nc3c(Cl)cc(/C=C/C#N)cc3Cl)c2cc1OC (stereo not given) | 1 | 5.14 | 8870 | – | – | – |
| COc1cc2nc(SCC(=O)Nc3ccc(C#N)cc3)nc(Nc3c(C)cc(/C=C/C#N)cc3C)c2cc1OC | > 746 | 6.52 | > 227000 | 6.70 | > 1130 | 5.44 |
| COc1cc2nc(Nc3ccc(C#N)cc3)nc(Nc3c(Cl)cc(/C=C/C#N)cc3Cl)c2cc1OC | 1890 | 8.28 | 9920 | 8.20 | 1580 | 7.34 |
| COc1cc2nc([S+]([O-])CC(=O)Nc3cc([N+](=O)[O-])ccc3F)nc(Nc3c(Cl)cc(/C=C/C#N)cc3Cl)c2cc1OC (stereo not given) | > 24 | 5.09 | > 194000 | 5.22 | > 32 | – |
| COc1cc2nc([S+]([O-])CC(=O)Nc3ccc(C(F)(F)F)cc3)nc(Nc3c(Cl)cc(/C=C/C#N)cc3Cl)c2cc1OC (stereo not given) | 97 | 6.64 | 22000 | 7.05 | 247 | – |
| COc1cc2nc([S+]([O-])CC(=O)Nc3cccc(C#N)c3)nc(Nc3c(Cl)cc(/C=C/C#N)cc3Cl)c2cc1OC (stereo not given) | ≥ 706 | 7.00 | ≥ 70300 | 7.42 | ≥ 1840 | – |
| COc1cc2nc([S+]([O-])CC(=O)Nc3cccc([N+](=O)[O-])c3)nc(Nc3c(Cl)cc(/C=C/C#N)cc3Cl)c2cc1OC (stereo not given) | ≥ 197 | 6.37 | ≥ 83200 | 6.57 | ≥ 308 | – |

| SMILES | selectivity ratio (in vitro [1]) | pEC50 [2] | CC50 at 120 h [3] [nM] | pEC50 [4] | selectivity ratio (in vitro [5]) | pIC50 [6] |
| --- | --- | --- | --- | --- | --- | --- |
| COc1cc2nc(SCC(=O)Nc3ccc(C(F)(F)F)cc3)nc(Nc3c(Cl)cc(/C=C/C#N)cc3Cl)c2cc1OC | > 10 | 4.70 | > 197000 | 5.41 | > 50 | – |
| COc1cc2nc([S+]([O-])CC(=O)Nc3ccc(C(F)(F)F)cc3)nc(Nc3c(C)cc(/C=C/C#N)cc3C)c2cc1OC (stereo not given) | 116 | 6.35 | 52200 | 6.60 | 210 | – |
| COc1cc2nc(SCC(=O)Nc3ccc(C(F)(F)F)cc3)nc(Nc3c(C)cc(/C=C/C#N)cc3C)c2cc1OC | > 40 | 5.28 | > 211000 | 5.62 | > 87 | – |
| COc1cc2nc(SCC(=O)Nc3ccc(S(N)(=O)=O)cc3)nc(Nc3c(Cl)cc(/C=C/C#N)cc3Cl)c2cc1OC | < 1 | < 3.94 | 116000 | – | – | – |
| COc1cc2nc(SCC(=O)Nc3cccc(S(N)(=O)=O)c3)nc(Nc3c(Cl)cc(/C=C/C#N)cc3Cl)c2cc1OC | > 1 | < 3.71 | > 194000 | – | – | – |
| COc1cc2nc(SCC(=O)Nc3cccc(Cl)c3)nc(Nc3c(Cl)cc(/C=C/C#N)cc3Cl)c2cc1OC | > 1 | < 3.68 | > 208000 | – | – | – |
| COc1cc2nc([S+]([O-])CC(=O)Nc3cccc(S(N)(=O)=O)c3)nc(Nc3c(Cl)cc(/C=C/C#N)cc3Cl)c2cc1OC (stereo not given) | < 1 | < 4.17 | 67800 | – | – | – |
| COc1cc2nc([S+]([O-])CC(=O)Nc3cccc(F)c3)nc(Nc3c(Cl)cc(/C=C/C#N)cc3Cl)c2cc1OC (stereo not given) | 40 | 6.63 | 9550 | 7.16 | 137 | – |
| COc1cc2nc(SCC(=O)Nc3cc([N+](=O)[O-])ccc3F)nc(Nc3c(Cl)cc(/C=C/C#N)cc3Cl)c2cc1OC | > 1 | < 3.70 | > 199000 | – | – | – |
| COc1cc2nc([S+]([O-])CC(=O)Nc3ccc(C)cc3)nc(Nc3c(Cl)cc(/C=C/C#N)cc3Cl)c2cc1OC (stereo not given) | 98 | 6.49 | 32200 | 7.31 | 657 | – |
| COc1cc2nc([S+]([O-])CC(=O)Nc3ccccc3F)nc(Nc3c(Cl)cc(/C=C/C#N)cc3Cl)c2cc1OC (stereo not given) | > 12 | 4.77 | > 208000 | 5.25 | > 37 | – |
| COc1cc2nc([S+]([O-])CC(=O)Nc3ccc(F)cc3)nc(Nc3c(C)cc(/C=C/C#N)cc3C)c2cc1OC (stereo not given) | 209 | 6.88 | 27400 | 7.48 | 833 | – |
| COc1cc2nc(SCC(=O)Nc3ccc(F)cc3)nc(Nc3c(C)cc(/C=C/C#N)cc3C)c2cc1OC | ≥ 66 | 5.64 | ≥ 150000 | 6.03 | ≥ 159 | – |
| COc1cc2nc([S+]([O-])CC(=O)Nc3cccc(C(F)(F)F)c3)nc(Nc3c(Cl)cc(/C=C/C#N)cc3Cl)c2cc1OC (stereo not given) | 17 | 5.90 | 21800 | 6.20 | 35 | – |
| COc1cc2nc([S+]([O-])CC(=O)Nc3cccc(Cl)c3)nc(Nc3c(Cl)cc(/C=C/C#N)cc3Cl)c2cc1OC (stereo not given) | 220 | 6.50 | 68900 | 7.16 | 1000 | – |
| COc1cc2nc(SCC(=O)Nc3ccc([N+](=O)[O-])cc3)nc(Nc3c(C)cc(/C=C/C#N)cc3C)c2cc1OC | > 292 | 6.13 | > 219000 | 6.45 | > 612 | 5.40 |
| COc1cc2nc([S+]([O-])CC(=O)Nc3ccc(Cl)cc3)nc(Nc3c(Cl)cc(/C=C/C#N)cc3Cl)c2cc1OC (stereo not given) | 313 | 7.34 | 14400 | 7.58 | 550 | – |
| O=C1Nc2ccc(Cl)cc2[C@@](C#CC2CC2)(C(F)(F)F)O1 [EFAVIRENZ] | – | 8.42 | > 6340 | 6.91 | – | – |
| Cc1cc(C#N)cc(C)c1Oc1nc(Nc2ccc(C#N)cc2)nc(N)c1Br [ETRAVIRINE] | – | 8.38 | > 4590 | 8.43 | – | – |
| Cc1ccnc2c1NC(=O)c1cccnc1N2C1CC1 [NEVIRAPINE] | – | 6.63 | > 15000 | ≤ 4.95 | – | – |

From ChEMBL document CHEMBL4312037, “Fragment hopping-based discovery of novel sulfinylacetamide-diarylpyrimidines (DAPYs) as HIV-1 nonnucleoside reverse transcriptase inhibitors” (Eur J Med Chem, 2020)
